In ChEMBL document CHEMBL5291721, “A preclinical secondary pharmacology resource illuminates target-adverse drug reaction associations of marketed drugs” (Nat Commun, 2023):

Experiments:
[1] = target: T1, 5-hydroxytryptamine receptor 2C (Homo sapiens, UniProt P28335)
T1 sequence (P28335 whole entry): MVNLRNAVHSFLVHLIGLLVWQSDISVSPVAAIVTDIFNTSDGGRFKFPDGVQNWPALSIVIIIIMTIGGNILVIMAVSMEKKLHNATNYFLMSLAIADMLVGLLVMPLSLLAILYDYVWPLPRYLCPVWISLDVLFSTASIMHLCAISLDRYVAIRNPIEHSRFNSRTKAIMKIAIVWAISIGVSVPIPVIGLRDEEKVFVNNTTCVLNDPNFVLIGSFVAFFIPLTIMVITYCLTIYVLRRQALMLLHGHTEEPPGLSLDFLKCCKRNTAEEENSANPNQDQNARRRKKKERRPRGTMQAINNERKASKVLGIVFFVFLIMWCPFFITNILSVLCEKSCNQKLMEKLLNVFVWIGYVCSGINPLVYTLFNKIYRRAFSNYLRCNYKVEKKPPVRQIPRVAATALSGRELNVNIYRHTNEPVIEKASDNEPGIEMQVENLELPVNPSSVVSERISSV

[2] = target: T2, Amine oxidase [flavin-containing] A (Homo sapiens, UniProt P21397); assay type: functional
T2 sequence (P21397 whole entry): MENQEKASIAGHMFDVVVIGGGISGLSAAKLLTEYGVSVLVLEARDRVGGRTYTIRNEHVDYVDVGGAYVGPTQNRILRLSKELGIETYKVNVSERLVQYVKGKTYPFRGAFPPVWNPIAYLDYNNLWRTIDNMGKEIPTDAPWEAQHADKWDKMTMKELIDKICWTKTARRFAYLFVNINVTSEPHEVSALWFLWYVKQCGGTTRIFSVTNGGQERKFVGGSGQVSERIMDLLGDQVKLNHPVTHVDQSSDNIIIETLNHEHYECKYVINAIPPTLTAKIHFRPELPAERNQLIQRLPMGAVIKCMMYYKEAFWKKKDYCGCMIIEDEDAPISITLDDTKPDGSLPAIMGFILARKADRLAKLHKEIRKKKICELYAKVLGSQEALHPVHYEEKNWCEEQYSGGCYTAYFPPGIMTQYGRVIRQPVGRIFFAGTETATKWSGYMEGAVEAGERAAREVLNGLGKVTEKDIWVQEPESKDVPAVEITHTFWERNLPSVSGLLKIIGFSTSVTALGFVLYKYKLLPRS

[3] = target: Delta-type opioid receptor (Homo sapiens, UniProt P41143)
[4] = target: Gamma-aminobutyric acid receptor subunit alpha-1 (Rattus norvegicus, UniProt P62813)
[5] = target: Kappa-type opioid receptor (Homo sapiens, UniProt P41145)
[6] = target: T3, 5-hydroxytryptamine receptor 1A (Homo sapiens, UniProt P08908); assay type: functional, cell-based
T3 sequence (P08908 whole entry): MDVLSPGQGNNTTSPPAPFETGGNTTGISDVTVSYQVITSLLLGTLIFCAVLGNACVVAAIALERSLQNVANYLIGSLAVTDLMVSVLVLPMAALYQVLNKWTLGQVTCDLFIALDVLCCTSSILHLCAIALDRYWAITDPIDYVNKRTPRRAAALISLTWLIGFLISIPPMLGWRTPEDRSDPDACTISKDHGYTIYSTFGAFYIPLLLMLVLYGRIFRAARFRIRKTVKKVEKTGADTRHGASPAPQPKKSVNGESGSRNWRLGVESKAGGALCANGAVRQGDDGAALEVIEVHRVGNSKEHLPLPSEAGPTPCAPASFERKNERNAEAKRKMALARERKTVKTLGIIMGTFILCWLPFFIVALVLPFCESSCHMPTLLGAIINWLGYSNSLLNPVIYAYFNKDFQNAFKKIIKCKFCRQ

Adenosine receptor A3 [7] = target: T4, Adenosine receptor A3 (Homo sapiens, UniProt P0DMS8)
T4 sequence (P0DMS8 whole entry): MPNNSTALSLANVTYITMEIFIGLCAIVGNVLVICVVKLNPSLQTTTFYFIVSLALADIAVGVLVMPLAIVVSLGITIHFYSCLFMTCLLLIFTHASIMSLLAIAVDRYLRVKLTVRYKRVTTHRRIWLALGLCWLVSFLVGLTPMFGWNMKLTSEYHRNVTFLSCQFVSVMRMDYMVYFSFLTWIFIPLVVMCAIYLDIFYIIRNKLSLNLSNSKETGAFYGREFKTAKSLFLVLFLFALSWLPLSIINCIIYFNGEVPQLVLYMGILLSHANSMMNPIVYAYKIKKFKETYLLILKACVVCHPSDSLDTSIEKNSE

Adenosine receptor A2a = Adenosine receptor A2a (Homo sapiens, UniProt P29274)
[8] = target: Beta-1 adrenergic receptor (Homo sapiens, UniProt P08588); assay type: functional
[9] = target: Growth hormone secretagogue receptor type 1 (Homo sapiens, UniProt Q92847)
Adenosine receptor A3 [10] = target: T4, Adenosine receptor A3; remark: listed apart in the source
[11] = target: T5, Type-1 angiotensin II receptor (Homo sapiens, UniProt P30556)
T5 sequence (P30556 whole entry): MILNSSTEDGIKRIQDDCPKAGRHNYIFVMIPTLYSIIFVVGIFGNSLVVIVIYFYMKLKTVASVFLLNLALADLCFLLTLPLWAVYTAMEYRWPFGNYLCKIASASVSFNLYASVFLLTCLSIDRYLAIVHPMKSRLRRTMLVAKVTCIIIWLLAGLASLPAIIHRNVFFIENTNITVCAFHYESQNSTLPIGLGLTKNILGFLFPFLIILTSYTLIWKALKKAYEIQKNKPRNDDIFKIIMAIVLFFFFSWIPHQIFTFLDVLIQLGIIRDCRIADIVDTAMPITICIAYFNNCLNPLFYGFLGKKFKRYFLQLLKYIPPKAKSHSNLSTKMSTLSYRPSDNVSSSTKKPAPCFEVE

Thromboxane A2 receptor = target: T6, Thromboxane A2 receptor (Homo sapiens, UniProt P21731)
T6 sequence (P21731 whole entry): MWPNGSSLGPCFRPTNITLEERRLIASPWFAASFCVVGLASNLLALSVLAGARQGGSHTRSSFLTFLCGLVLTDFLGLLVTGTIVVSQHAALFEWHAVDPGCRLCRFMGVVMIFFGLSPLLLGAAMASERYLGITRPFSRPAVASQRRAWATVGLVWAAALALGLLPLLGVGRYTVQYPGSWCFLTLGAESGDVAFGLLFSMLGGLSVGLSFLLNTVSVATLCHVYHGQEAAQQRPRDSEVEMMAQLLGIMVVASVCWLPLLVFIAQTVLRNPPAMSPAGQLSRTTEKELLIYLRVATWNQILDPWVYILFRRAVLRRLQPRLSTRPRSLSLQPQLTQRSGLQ

Motilin receptor = Motilin receptor (Homo sapiens, UniProt O43193)
Also: assay procedure not described here.

Chain of Gamma-aminobutyric acid receptor subunit alpha-1 (P62813 whole entry): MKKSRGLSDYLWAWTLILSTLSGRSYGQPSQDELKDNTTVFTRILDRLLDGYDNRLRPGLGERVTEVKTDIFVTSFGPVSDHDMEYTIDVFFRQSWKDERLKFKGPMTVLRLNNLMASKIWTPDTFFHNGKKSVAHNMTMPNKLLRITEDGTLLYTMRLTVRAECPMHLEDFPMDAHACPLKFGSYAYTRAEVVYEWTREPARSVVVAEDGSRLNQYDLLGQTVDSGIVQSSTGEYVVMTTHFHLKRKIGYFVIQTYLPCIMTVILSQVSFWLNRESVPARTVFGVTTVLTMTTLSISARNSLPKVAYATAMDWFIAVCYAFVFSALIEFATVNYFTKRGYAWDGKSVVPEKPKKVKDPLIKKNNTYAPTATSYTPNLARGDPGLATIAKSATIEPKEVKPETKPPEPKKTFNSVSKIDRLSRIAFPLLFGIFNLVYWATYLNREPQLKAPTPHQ
Chain of Delta-type opioid receptor (P41143 whole entry): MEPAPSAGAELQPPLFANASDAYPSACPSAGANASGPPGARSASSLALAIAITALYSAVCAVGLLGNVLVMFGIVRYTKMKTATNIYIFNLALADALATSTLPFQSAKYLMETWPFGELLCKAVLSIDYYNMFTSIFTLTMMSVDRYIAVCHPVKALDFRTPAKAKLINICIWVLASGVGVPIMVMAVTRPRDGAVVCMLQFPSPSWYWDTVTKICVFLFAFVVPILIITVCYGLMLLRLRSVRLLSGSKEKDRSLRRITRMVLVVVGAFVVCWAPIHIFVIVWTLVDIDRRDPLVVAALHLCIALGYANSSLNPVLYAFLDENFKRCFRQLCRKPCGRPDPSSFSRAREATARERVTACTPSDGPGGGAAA
Chain of Kappa-type opioid receptor (P41145 whole entry): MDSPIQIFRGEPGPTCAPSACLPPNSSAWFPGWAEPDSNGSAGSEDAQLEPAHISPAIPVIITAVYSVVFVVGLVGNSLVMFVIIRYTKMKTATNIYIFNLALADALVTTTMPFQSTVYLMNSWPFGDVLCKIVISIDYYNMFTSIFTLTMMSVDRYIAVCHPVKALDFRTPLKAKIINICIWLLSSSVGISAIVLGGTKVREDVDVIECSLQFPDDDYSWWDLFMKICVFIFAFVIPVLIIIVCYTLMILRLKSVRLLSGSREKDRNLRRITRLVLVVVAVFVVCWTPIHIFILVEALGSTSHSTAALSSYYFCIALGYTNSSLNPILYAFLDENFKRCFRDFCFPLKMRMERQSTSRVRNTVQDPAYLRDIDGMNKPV
Chain of Beta-1 adrenergic receptor (P08588 whole entry): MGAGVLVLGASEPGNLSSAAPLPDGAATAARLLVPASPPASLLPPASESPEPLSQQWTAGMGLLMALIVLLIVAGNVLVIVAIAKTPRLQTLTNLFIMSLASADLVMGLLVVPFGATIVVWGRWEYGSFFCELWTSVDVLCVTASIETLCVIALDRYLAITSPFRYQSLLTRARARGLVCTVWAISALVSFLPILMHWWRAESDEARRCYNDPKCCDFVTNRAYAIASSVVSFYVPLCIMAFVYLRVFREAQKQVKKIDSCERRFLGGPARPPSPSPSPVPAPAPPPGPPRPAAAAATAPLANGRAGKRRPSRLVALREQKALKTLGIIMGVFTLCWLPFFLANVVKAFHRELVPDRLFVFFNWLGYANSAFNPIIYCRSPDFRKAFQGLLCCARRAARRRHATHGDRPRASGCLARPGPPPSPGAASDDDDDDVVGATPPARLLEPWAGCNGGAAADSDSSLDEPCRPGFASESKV
Chain of Motilin receptor (O43193 whole entry): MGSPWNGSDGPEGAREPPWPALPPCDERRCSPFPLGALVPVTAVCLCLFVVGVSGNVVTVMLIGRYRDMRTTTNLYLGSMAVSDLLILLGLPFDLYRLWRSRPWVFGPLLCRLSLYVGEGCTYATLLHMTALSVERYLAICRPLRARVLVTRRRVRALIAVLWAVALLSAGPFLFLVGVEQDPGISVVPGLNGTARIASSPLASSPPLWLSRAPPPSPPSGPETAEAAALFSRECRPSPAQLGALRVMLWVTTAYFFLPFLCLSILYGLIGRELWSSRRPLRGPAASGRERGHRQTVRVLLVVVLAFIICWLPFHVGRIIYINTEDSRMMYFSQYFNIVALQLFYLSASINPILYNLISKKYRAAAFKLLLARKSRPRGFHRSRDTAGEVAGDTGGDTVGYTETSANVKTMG
Chain of Growth hormone secretagogue receptor type 1 (Q92847 whole entry): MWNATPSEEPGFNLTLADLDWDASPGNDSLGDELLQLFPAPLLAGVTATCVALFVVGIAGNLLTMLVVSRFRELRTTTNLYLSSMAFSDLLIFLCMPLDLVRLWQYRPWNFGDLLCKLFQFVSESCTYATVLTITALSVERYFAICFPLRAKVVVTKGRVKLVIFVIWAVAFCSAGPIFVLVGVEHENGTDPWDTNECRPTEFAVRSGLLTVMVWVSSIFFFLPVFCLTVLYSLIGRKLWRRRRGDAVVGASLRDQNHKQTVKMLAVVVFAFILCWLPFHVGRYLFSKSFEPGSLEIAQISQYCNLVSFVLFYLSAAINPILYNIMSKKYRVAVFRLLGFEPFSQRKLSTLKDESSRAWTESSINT
Chain of Adenosine receptor A2a (P29274 whole entry): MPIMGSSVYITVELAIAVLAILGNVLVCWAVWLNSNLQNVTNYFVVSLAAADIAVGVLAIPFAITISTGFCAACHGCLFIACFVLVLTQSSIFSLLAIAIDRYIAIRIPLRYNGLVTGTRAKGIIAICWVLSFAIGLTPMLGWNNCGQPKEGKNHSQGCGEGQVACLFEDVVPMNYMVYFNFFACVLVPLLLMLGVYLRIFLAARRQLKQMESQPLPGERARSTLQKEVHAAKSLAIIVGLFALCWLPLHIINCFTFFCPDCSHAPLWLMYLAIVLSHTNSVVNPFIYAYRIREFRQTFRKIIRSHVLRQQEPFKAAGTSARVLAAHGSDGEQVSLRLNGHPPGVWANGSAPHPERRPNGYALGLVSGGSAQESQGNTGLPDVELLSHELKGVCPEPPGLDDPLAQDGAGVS

SMILES | AC50 [4] | AC50 (Adenosine receptor A3 [7]) | further results
Oc1c(I)cc(Cl)c2cccnc12 [CLIOQUINOL] | > 30 µM |  | AC50 [1]: > 10 µM; AC50 [2]: > 30 µM; AC50 [3]: > 30 µM; AC50 [5]: > 30 µM; AC50 [6]: > 30 µM
C[C@@H]1C[C@H]2[C@@H]3C[C@H](F)C4=CC(=O)C=C[C@]4(C)[C@@]3(Cl)[C@@H](O)C[C@]2(C)[C@H]1C(=O)COC(=O)C(C)(C)C [CLOCORTOLONE PIVALATE] | > 30 µM | 5.52 µM | 
O=P(O)(O)C(Cl)(Cl)P(=O)(O)O [CLODRONIC ACID] | > 30 µM | > 30 µM | 
O=C(CCCN1CC=C(n2c(=O)[nH]c3ccccc32)CC1)c1ccc(F)cc1 [DROPERIDOL] | > 30 µM | > 30 µM | 
CCOC(=O)c1ccc(OC(=O)CCCCCNC(=N)N)cc1 [GABEXATE] | > 30 µM | > 30 µM | 
CCCCC/C=C\C/C=C\C/C=C\CCCCC(=O)O [GAMOLENIC ACID] | > 30 µM | > 30 µM | 
NC(=O)NCCC[C@H](N)C(=O)O [L-CITRULLINE] | > 30 µM | > 30 µM | 
CC(=O)O[C@H]1C[C@H](O[C@H]2[C@@H](O)C[C@H](O[C@H]3[C@@H](O)C[C@H](O[C@H]4CC[C@@]5(C)[C@H](CC[C@@H]6[C@@H]5C[C@@H](O)[C@]5(C)[C@@H](C7=CC(=O)OC7)CC[C@]65O)C4)O[C@@H]3C)O[C@@H]2C)O[C@H](C)[C@H]1O[C@@H]1O[C@H](CO)[C@@H](O)[C@H](O)[C@H]1O [LANATOSIDE C] | > 30 µM | > 30 µM | 
Nc1nc(N)nc(Nc2ccc([As]3SCC(CO)S3)cc2)n1 (stereo not drawn) [MELARSOPROL] | 21 µM | 1.92 µM | 
CO[C@H]1[C@@H](O)C[C@H](O[C@H]2[C@@H](O)C[C@H](O[C@H]3[C@@H](O)C[C@H](O[C@H]4CC[C@@]5(C)[C@H](CC[C@@H]6[C@@H]5C[C@@H](O)[C@]5(C)[C@@H](C7=CC(=O)OC7)CC[C@]65O)C4)O[C@@H]3C)O[C@@H]2C)O[C@@H]1C [METILDIGOXIN] | > 30 µM | > 30 µM | 
CC1(C)S[C@@H]2[C@H](NC(=O)[C@H](NC(=O)N3CCN(S(C)(=O)=O)C3=O)c3ccccc3)C(=O)N2[C@H]1C(=O)O [MEZLOCILLIN] | > 30 µM | > 30 µM | 
c1ccc2c(CC3=NCCN3)cccc2c1 [NAPHAZOLINE] | > 30 µM | > 30 µM | 
C1CNCCN1 [PIPERAZINE] | > 30 µM | > 30 µM | 
COCCCOc1ccnc(C[S+]([O-])c2nc3ccccc3[nH]2)c1C (stereo not drawn) [RABEPRAZOLE] | > 30 µM |  | AC50 (Adenosine receptor A2a): > 30 µM; AC50 [8]: > 10 µM; AC50 [9]: > 30 µM; AC50 [1]: > 30 µM; AC50 (Adenosine receptor A3 [10]): 2.2 µM; AC50 [2]: > 10 µM; AC50 [3]: > 30 µM; AC50 [11]: > 30 µM; AC50 [5]: > 10 µM; AC50 (Thromboxane A2 receptor): 11.4 µM; AC50 (Motilin receptor): > 10 µM; AC50 [6]: > 10 µM
